{"source": "patent US20080119530A1", "about": "“Method for treatment and prevention of ultraviolet light induced skin pathologies” (priority 2006, published 2008)", "key": {"skin": {"system": "skin", "assay": "Cell cycle analysis of skin sections by flow cytometry", "assay_type": "in vivo, mouse", "conditions": "inhibition prior to UV irradiation", "protocol": "Flow cytometry. […] sections from paraffin embedded blocks were dewaxed with xylene, rehydrated and digested in PBS containing 0.5% pepsin (Sigma, St. Louis, Mo.). The nuclei were isolated by filtration and suspended in Vindelov's (56) solution reagent (3.5 mM tris base, pH 7.6, 10 mM NaCl, 10 μg/ml Ribonuclease A, 75 μg/ml PI, 1.0 μl/ml IPEGAL; (71)). At least 10,000 events from each sample were analyzed for flow cytometry on a FACSCalibur flow cytometer (Becton Dickinson, Franklin Lakes, N.J.). Data were acquired in the FL2 channel with a […] filter. Fluorescence signals were pulse processed and single cells identified using a FL2W versus FL2A plot. A histogram of FL2A was plotted for single cells and cell cycle distributions determined using ModFit LT 3.1 software (Verity Software House, Topsham, Me.).\nCell cycle. […] For in vitro analysis, keratinocytes were resuspended, fixed in 70% ethanol, resuspended in Vindelov's solution (3.5 mM Tris base, pH 7.6, 10 mM NaCl, 10 μg/ml Ribonuclease A, 75 μg/ml propidium iodide, 1.01l/ml IPEGAL), and analyzed on a FACSCalibur flow cytometer (Becton Dickinson, Franklin Lakes, N.J.). Cell cycle distributions were determined using ModFit LT 3.1 software (Verity Software House, Topsham, Me.). […]"}, "[1]": {"system": "p38 kinase, ERK1/2 and JNK1/2", "assay": "MAPK activity in keratinocytes", "assay_type": "cell-based, mouse", "conditions": "after sham UV", "from_the_text": "Inactivation of Cdc25a can occur through activation of a member of the p38 MAPK signaling pathway, which is also activated by Erbb2, but this regulation of Cdc25a remains controversial (24). […] Other mechanisms for the inactivation of Cdc25a, including sequestration in the cytoplasm and phosphorylation by p38 kinase following UV exposure or osmotic shock, have been reported (25)."}, "keratinocytes": {"system": "keratinocytes", "assay": "Apoptosis in keratinocytes (ssDNA Apoptosis ELISA)", "assay_type": "cell-based, mouse", "from_the_text": "Cell culture. […] Keratinocytes were transfected with Erbb2-targeted siRNA (32), Stealth RNAi Negative Control LO GC (Invitrogen, Carlsbad, Calif.), Cy3-conjugated Label IT RNAi Delivery Control (Mirus, Madison, Wis.) or sham transfection with TransIT-siQUEST Transfection Reagent (Mirus, Madison, Wis.). Plasmids with Cdc25a (Hassepass et al. 2003a) and EGFP (enhanced green fluorescent protein) cDNA were cotransfected with Lipofectamine Transfection Reagent (Invitrogen, Carlsbad, Calif.). Transfection efficiency was quantified by determining the proportion of the cells that incorporated the fluorescent Cy3-conjugated siRNA or GFP one day post-transfection. Keratinocytes homozygous for the Erbb2 loxP mutation were infected with Cre recombinase-expressing or empty adenoviral vectors in polybrene (Sigma).\nProliferation and apoptosis assays. Proliferation, survival and apoptosis were quantified in three replicate experiments. BrdU uptake was measured by a chemiluminescenit BrdU Cell Proliferation ELISA (Roche, Germany). Survival was quantified using 4-methylumbelliferyl heptanoate (MUH, Sigma, St. Louis, Mo.) degradation product fluorescence (ex: 360 nm, em:465 nm) as a marker for cell viability based on the method by Dotsika et al.^27 Cells were incubated in 100 μg/ml MUH in PBS for 30 minutes at 37° C. MUH fluorescence from wells lacking cells was subtracted from all samples. Apoptosis was measured using an ssDNA Apoptosis ELISA kit (Chemicon, Temecula, Calif.).\nTo investigate the role of Erbb2 in apoptosis following UV exposure, keratinocyte survival was measured in AG825-treated or Erbb2 siRNA-transfected cells and controls. As expected, apoptosis increased in all groups after UV exposure, as detected by ssDNA quantification."}, "Erbb3": {"system": "Erbb3", "assay": "UV-induced phosphorylation of Erbb3", "assay_type": "cell-based, mouse", "from_the_text": "Several methods were developed to regulate Erbb2 expression and activity both in vitro and in vivo."}, "[2]": {"molecular_target": "insulin-like growth factor I receptor kinase (Homo sapiens, UniProt P08069)", "sequence (P08069 31-1367)": "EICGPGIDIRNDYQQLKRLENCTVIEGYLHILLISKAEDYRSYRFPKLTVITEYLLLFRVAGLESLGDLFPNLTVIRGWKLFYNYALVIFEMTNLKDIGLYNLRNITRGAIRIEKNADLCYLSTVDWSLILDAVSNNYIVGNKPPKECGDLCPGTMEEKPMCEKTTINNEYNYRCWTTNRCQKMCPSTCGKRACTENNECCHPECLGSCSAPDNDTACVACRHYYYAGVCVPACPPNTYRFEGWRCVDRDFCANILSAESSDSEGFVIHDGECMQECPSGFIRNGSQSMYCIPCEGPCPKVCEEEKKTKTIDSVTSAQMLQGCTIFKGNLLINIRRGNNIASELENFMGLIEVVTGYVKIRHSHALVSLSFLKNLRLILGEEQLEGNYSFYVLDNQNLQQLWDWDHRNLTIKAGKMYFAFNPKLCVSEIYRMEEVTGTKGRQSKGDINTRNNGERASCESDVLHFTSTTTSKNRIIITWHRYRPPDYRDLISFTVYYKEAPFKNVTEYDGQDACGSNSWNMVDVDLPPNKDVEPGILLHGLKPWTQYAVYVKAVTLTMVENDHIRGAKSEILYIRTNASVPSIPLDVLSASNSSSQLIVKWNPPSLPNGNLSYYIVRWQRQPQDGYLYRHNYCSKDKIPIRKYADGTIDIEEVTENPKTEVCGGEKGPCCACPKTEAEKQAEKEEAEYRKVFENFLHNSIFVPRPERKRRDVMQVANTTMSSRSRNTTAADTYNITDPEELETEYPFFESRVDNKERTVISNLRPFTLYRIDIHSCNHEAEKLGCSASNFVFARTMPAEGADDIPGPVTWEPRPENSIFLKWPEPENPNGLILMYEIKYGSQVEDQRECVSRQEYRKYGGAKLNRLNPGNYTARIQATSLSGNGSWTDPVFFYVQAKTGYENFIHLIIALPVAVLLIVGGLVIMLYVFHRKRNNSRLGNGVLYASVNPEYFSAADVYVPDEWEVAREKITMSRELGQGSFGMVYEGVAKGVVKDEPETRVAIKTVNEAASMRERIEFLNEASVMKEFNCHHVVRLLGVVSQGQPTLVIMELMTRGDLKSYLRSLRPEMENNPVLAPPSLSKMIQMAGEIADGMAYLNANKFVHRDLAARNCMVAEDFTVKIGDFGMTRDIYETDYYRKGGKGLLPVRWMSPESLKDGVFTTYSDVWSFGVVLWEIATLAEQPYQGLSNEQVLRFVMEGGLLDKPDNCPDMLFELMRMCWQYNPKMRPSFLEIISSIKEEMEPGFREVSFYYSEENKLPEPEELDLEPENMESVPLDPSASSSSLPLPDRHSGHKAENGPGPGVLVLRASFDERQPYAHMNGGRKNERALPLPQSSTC"}}, "data": [{"molecule": "COc1cc(/C=C(\\C#N)C(N)=O)cc(CSc2nc3ccccc3s2)c1O", "note": "[AG825]", "values": [{"measurement": "S-phase cells in skin", "setting": "skin", "result": "increased"}, {"measurement": "p38 kinase, ERK1/2 and JNK1/2 activity", "setting": "[1]", "result": "decrease"}, {"measurement": "ssDNA (apoptosis), compared with DMSO-treated keratinocytes", "setting": "keratinocytes; between 6 and 12 h post-UV", "result": "similarly increased"}, {"measurement": "apoptosis compared to DMSO-treated cells", "setting": "keratinocytes; by 24 h after UV exposure", "result": "significantly increased"}, {"measurement": "apoptosis after UV in vitro", "setting": "keratinocytes; extent varies with the assay", "result": "small increase"}, {"measurement": "UV-induced phosphorylation of Erbb3-Tyr1289", "setting": "Erbb3", "result": "blocked"}, {"measurement": "fold higher IC50 for insulin-like growth factor I receptor kinase than for Erbb2", "setting": "[2]", "result": "more than 100 fold"}]}]}
